“Also recorded” adds a separate entry of the source. Where a SMILES comes first, the peptide text is derived from it. [ ]: non-standard residue; d: D form. pY = N[C@@H](Cc1ccc(OP(=O)(O)O)cc1)C(=O)O
Key:
NCI-H460 tumors = assay: NCI-H460 tumor xenograft in nude mice, tumor volume (Example 2); type: in vivo
Method: H460 cell line has cytology compatible with human Non-Small Cell Lung Cancer (NSCL). Cells were grown in MEM medium containing 10% FCS at 37° C., 5% CO2 humidified atmosphere. The absence of mycoplasms was confirmed by using the PCR Mycoplasma Detection kit (Takara). All experiments were reviewed by the Genopole's institutional animal care and use committee and were performed in accordance with institutional guidelines for animal care. Female BALB/c nu/nu mice (n=30) were used at 5-6 weeks of age. The animals were housed in laminar air-flow cabinets under pathogen-free conditions with a 12 h light/12 h dark schedule, and fed autoclaved standard chow and water ad libitum. The NCI-H460 human NSCL cell line was obtained from American Type Culture Collection (ATCC) and cells were grown in RPMI medium 1640 supplemented with 1 μM sodium pyruvate. Tumor cells (10^7 cells in 200 μl of HBSS) were injected subcutaneously into the right flanks of mice. After engraftment, tumor volume was measured by Vernier callipers, and calculated as described in Balsari A et al. (Balsari A et al. (2004) Eur J Cancer 40: 1275-1281). At tumor volume about 150 mm3, animals were randomized, and separated into five groups of five animals. Control mice (group 1) were intraperitoneally injected with vehicle (10% DMSO in buffer saline) every day. GS-0 was dissolved in vehicle and intraperitoneally injected (group 2) every day (12 injections). GS-1 was dissolved in vehicle and intraperitoneally injected (group 3) every day (12 injections). Tumor volume and body weight were measured every other day over the treatment period (12 days). GS-1 as well as the control peptide GS-0 were solubilized in DMSO and the resulting solutions were diluted 10 times with phosphate buffer saline (PBS) to obtain a concentration of 1 mg of peptide/ml of 10% DMSO in PBS. At this concentration, all peptides were soluble in 10% DMSO.

mTOR = mTOR status in HMEC after incubation with peptides (anti-mTor antibody Ser2448); type: cell-based, human
Method: (§1) Human EC grown in EGM-2MV (80% confluence) were incubated with the peptides of the invention or vehicle for the indicated time, washed three times in cold PBS and directly lysed in 2 ml of ice-cold lysis buffer (10 mM Tris pH 7.5, 150 mM NaCl, 1 mM PMSF, 0.5 μg/ml leupeptin, 1 μg/ml pepstatin A, and 1 μg/ml aprotinin) by incubation for 30 min at 4° C. Cell lysate were spun at […] for 10 min, insoluble materials were discarded, and protein contents measured by Bradford assay of supernatants were adjusted. Cell lysate (1 ml) was precleared with 25 μl of protein G-plus agarose beads (Santa Cruz) for 30 min, and proteins were then immunoprecipitated by adding 2 μg of the indicated antibody and incubated for 1 hr. The immunocomplex was pulled down with protein G-plus agarose beads and the beads were washed three times with lysis buffer. The immunoprecipitates were separated by NuPAGE® 4-12% Bis-Tris gel electrophoresis under reducing conditions, transferred to PVDF membrane (Novex System, Invitrogen), and the membrane was blocked with 5% (w/v) non-fat milk in TBS containing 0.1% v/v Tween-20 for 1 hr.
The status of mTOR in the HMEC following incubation with peptides GS-0 and GS-1 was investigated.

[1] = system: human microvascular endothelial cells (HMEC); assay: In vitro angiogenesis assay (Matrigel tube formation); type: cell-based; conditions: 500 μg/ml final concentration of peptide, images at 18 h
Method: Angiogenesis of human microvascular endothelial cells (HMEC) was induced in vitro using a Matrigel assay described by Al-Mahmood et al (2009, JPET, 2009; 58:933). This method is based on the differentiation of endothelial cells to form capillary structures on a Matrigel Matrix. Matrigel is prepared the Engelbreth-Holm-Swarm (EHS) mouse tumor, which represents a complex mixture of basement membrane proteins including type IV collagen, entactin, proteo-heparan sulfate and other growth factors.
Briefly, 250 μl of Matrigel were transferred to each well of a 24-well culture plate and incubated at 37° C. for 30 min to allow for the matrix solution to solidify. HMEC grown in complete growth medium EGM-2MV were harvested by trypsin, suspended in the same growth medium and 500 μl containing 70 000 cells were added on top of the solidified Matrigel in each well and in the presence or absence of peptide. Cells were maintained in a humidified atmosphere air containing 5% CO2 at 37° C. for 18-24 hrs. Endothelial tube formation was observed and photographed under an inverted light microscope.
The designed tyrosine phosphorylated and non phosphorylated peptides were tested for their influence onto the in vitro angiogenesis. The results of the in vitro angiogenesis assay were presented in FIG. 1, using HMEC and 500 μg/ml final concentration of each peptide.

[2] = Solubility of peptides in 10% DMSO in PBS; type: physicochemical; conditions: 1 mg of peptide/ml of 10% DMSO in PBS
Method: GS-1 as well as the control peptide GS-0 were solubilized in DMSO and the resulting solutions were diluted 10 times with phosphate buffer saline (PBS) to obtain a concentration of 1 mg of peptide/ml of 10% DMSO in PBS. At this concentration, all peptides were soluble in 10% DMSO.
GS-2 as well as the control peptide GS-0 were solubilized in DMSO and the resulting solutions were diluted 10 times with phosphate buffer saline (PBS) to obtain a concentration of 1 mg of peptide/ml of 10% DMSO in PBS. At this concentration, all peptides were soluble in 10% DMSO.

[3] = biological target: T1, recruitment of the regulatory subunit (p85) of the enzyme PI-3K by IRS-1 (Homo sapiens, UniProt P27986); assay: Recruitment of p85 of PI-3K by IRS-1 (IRS-1 immunoprecipitation, anti-p85 immunoblot) in HMEC; type: cell-based; conditions: final concentration of peptide 500 μg/ml
T1 construct: endogenous in cells; host or cells: human microvascular endothelial cells (HMEC)
T1 sequence (P27986 whole entry): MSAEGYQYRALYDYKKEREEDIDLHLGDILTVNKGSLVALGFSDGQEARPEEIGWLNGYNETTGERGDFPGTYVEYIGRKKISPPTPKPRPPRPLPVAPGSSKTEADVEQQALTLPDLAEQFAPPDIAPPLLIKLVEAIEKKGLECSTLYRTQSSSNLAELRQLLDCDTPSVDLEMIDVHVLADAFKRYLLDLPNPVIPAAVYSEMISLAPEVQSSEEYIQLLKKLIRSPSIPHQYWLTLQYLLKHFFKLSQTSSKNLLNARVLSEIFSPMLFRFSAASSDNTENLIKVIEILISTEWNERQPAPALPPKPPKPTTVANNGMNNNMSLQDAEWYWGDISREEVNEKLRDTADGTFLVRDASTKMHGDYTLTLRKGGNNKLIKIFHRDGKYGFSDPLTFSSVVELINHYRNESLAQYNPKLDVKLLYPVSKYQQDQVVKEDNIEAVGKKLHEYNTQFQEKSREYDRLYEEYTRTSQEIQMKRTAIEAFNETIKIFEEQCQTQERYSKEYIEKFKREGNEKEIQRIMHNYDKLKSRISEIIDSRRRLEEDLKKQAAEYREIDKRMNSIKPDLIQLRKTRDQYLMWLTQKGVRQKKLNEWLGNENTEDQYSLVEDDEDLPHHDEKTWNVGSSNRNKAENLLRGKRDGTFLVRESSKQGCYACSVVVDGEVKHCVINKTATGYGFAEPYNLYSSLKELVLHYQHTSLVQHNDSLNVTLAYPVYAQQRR
Method: as §1
As it is widely admitted that the tyrosine phosphorylation of IRS-1 leads to its association with the regulatory subunit (p85) of the enzyme PI-3K, and this event lead to important increases in the enzymatic activity of this later, we have investigated the influence of the tyrosine phosphorylated and non phosphorylated peptides onto the recruitment of the regulatory subunit (p85) of the enzyme PI-3K by IRS-1. For that, human microvascular endothelial cells (HMEC) were incubated with the tyrosine phosphorylated and non phosphorylated peptides (final concentration of peptide 500 μg/ml) followed by cells lysis and immuoprecipitation of the protein IRS-1. The immunoprecipitates were then resolved in SDS-PAGE, proteins were transferred to membranes, and the membranes were immunoblotted with an anti-p85 PI3K monoclonal antibody.

[4] = Body weight and toxicity of mice bearing NCI-H460 tumors (Example 2); type: in vivo
Method: All experiments were reviewed by the Genopole's institutional animal care and use committee and were performed in accordance with institutional guidelines for animal care. Female BALB/c nu/nu mice (n=30) were used at 5-6 weeks of age. The animals were housed in laminar air-flow cabinets under pathogen-free conditions with a 12 h light/12 h dark schedule, and fed autoclaved standard chow and water ad libitum. […] Tumor cells (10^7 cells in 200 μl of HBSS) were injected subcutaneously into the right flanks of mice. […] At tumor volume about 150 mm3, animals were randomized, and separated into five groups of five animals. Control mice (group 1) were intraperitoneally injected with vehicle (10% DMSO in buffer saline) every day. GS-0 was dissolved in vehicle and intraperitoneally injected (group 2) every day (12 injections). GS-1 was dissolved in vehicle and intraperitoneally injected (group 3) every day (12 injections). Tumor volume and body weight were measured every other day over the treatment period (12 days).

With `CSCC[C@H](NC(=O)[C@H](Cc1ccccc1)NC(=O)[C@H](CCSC)NC(=O)[C@H](Cc1ccc(OP(=O)(O)O)cc1)NC(=O)CNC(C)=O)C(=O)N[C@@H](CO)C(N)=O` [GS-1, GpYMFMS] (Ac-G[pY]MFMS-NH2) as the molecule, how does the “influence on the in vivo growth of the tumor NCI-H460 (in words)” value (NCI-H460 tumors; 8 mg/kg i.p. daily for 12 days) read?
The value was “highly significant and potent influence; also recorded: statistically significant and potent anti-tumoral activity”.

What about the “mean tumor volume at the end of treatment” value (NCI-H460 tumors; 8 mg/kg i.p. daily for 12 days, n=5) of the same molecule?
Its value is 234.98 ± 69.22 mm^3.

What about the Mean tumor volume D1 (NCI-H460 tumors; Table 2, 8 mg/kg i.p. daily, day 1) of the same molecule?
The Mean tumor volume D1 was 114 mm³.

And the Mean tumor volume D3 (NCI-H460 tumors; Table 2, 8 mg/kg i.p. daily, day 3)?
The Mean tumor volume D3 was 133 mm³.

And the Mean tumor volume D5 (NCI-H460 tumors; Table 2, 8 mg/kg i.p. daily, day 5)?
The Mean tumor volume D5 was 124 mm³.

And the Mean tumor volume D7 (NCI-H460 tumors; Table 2, 8 mg/kg i.p. daily, day 7)?
Its Mean tumor volume D7 is 141 mm³.

And the Mean tumor volume D9 (NCI-H460 tumors; Table 2, 8 mg/kg i.p. daily, day 9)?
The Mean tumor volume D9 was 231 mm³.

What about the Mean tumor volume D11 (NCI-H460 tumors; Table 2, 8 mg/kg i.p. daily, day 11) of the same molecule?
The Mean tumor volume D11 was 334 mm³.

And the Mean tumor volume D13 (NCI-H460 tumors; Table 2, 8 mg/kg i.p. daily, day 13)?
The Mean tumor volume D13 was 235 mm³.

What about the “amounts of mTOR in HMEC relative to vehicle” value (mTOR) of the same molecule?
Its value is “much less amounts of mTOR”.

And the “in vitro angiogenesis-inhibitory activity” value [1]?
Its value is “have in vitro angiogenesis-inhibitory activities”.

And the “solubility in 10% DMSO” value [2]?
The value was “soluble”.

What about the “influence onto the recruitment of the regulatory subunit (p85) of PI3K by IRS-1” value [3] of the same molecule?
The value was “very strong inhibitory effects”.

What about the “toxicity and body weight loss during treatment” value ([4]; 8 mg/kg intraperitoneally every day, 12 injections) of the same molecule?
The value was “No toxicity and no body weight loss”.

What about the “Mean body weight D1” value ([4]; Table 1, 8 mg/kg i.p. daily, day 1, in g) of the same molecule?
The value was 23.58.

And the “Mean body weight D3” value ([4]; Table 1, 8 mg/kg i.p. daily, day 3, in g)?
The value was 23.27.

And the “Mean body weight D5” value ([4]; Table 1, 8 mg/kg i.p. daily, day 5, in g)?
Its value is 20.69.

And the “Mean body weight D7” value ([4]; Table 1, 8 mg/kg i.p. daily, day 7, in g)?
The value was 23.29.

What about the “Mean body weight D9” value ([4]; Table 1, 8 mg/kg i.p. daily, day 9, in g) of the same molecule?
Its value is 23.72.

What about the “Mean body weight D11” value ([4]; Table 1, 8 mg/kg i.p. daily, day 11, in g) of the same molecule?
Its value is 23.81.

And the “Mean body weight D13” value ([4]; Table 1, 8 mg/kg i.p. daily, day 13, in g)?
Its value is 23.48.

Which “in vitro angiogenesis-inhibitory activity” value [1] does the source give for “DpYMTMQ (Ac-D[pY]MTMQ-NH2) [GS-3, tyrosine phosphorylated peptide]” here?
The value was “have in vitro angiogenesis-inhibitory activities”.

— patent US9206236B2, “Peptides for treating cancer” (Gene Signal International SA, priority 2010, dated 2015)
